Source: patent publication US8597649B2, “Antagonist antibodies directed against calcitonin gene-related peptide and methods using same” (Labrys Biologics, Inc., priority 2005, dated 2013)

Legend:
[1] = system: skin vasodilatation induced by stimulation of rat saphenous nerve; assay: skin vasodilatation induced by stimulation of rat saphenous nerve; format: in vivo; settings: 400 nmol/kg i.v., 3-5 min before stimulation, compared to the control (FIG. 2A, 2B)
Method: To test antagonist activity of anti-CGRP antibodies, effect of the antibodies on skin vasodilatation by stimulation of rat saphenous nerve was tested using a rat model described previously. Escott et al., Br. J. Pharmacol. 110:772-776, 1993. In this rat model, electrical stimulation of saphenous nerve induces release of CGRP from nerve endings, resulting in an increase in skin blood flow. Blood flow in the foot skin of male Sprague Dwaley rats (170-300 g, from Charles River Hollister) was measured after saphenous nerve stimulation. Rats were maintained under anesthesia with 2% isoflurane. Bretylium tosylate (30 mg/kg, administered i.v.) was given at the beginning of the experiment to minimize vasoconstriction due to the concomitant stimulation of sympathetic fibers of the saphenous nerve. Body temperature was maintained at 37° C. by the use of a rectal probe thermostatically connected to a temperature controlled heating pad. […]
For experiments shown in FIGS. […] Skin blood flow, measured as blood cell flux, was monitored with a laser Doppler flow meter. […]
For experiments shown in FIGS. 4A and 4B, saphenous nerve was exposed surgically before antibody administration. […] Skin blood flow, measured as blood cell flux, was monitored with a laser Doppler flow meter. […]

[2] = system: middle meningeal artery (MMA) dilation evoked by electrical field stimulation; assay: Dural artery (closed cranial window) assay; format: in vivo; settings: rat, i.v.
Method: Closed Cranial Window Model: The purpose of this experiment was to determine the acute effect of anti-CGRP antagonist antibodies and compare it with the acute effect of the CGRP receptor antagonist BIBN4096BS. Experiments were carried out as previously described (Williamson et al., Cephalalgia 17(4):518-24 (1997)) with the following modifications. Sprague Dawley rats (300-400 g) were anesthetized with 70 mg/kg i.p. pentobarbital. Anesthesia was maintained with 20 mg/kg/hr i.v. pentobarbital. Rats were cannulated through the jugular vein for delivery of all drugs. Blood pressure was monitored with a probe (mikro-tip catheter, Millar Instruments) threaded through the femoral artery into the abdominal aorta. The rats were tracheotomized and breathing rate was maintained at 75 breaths per minute at a volume of 3.5 mL. After fixating the head in a stereotactic instrument and removing the scalp, a 2×6 mm window in the left parietal area just lateral to the sagittal suture was made by thinning the bone with a dental drill. […] Lateral to the electrode window another window of 5×6 mm was created and filled with heavy mineral oil through which the diameter of a branch of the middle meningeal artery (MMA) was continuously monitored with a CCD camera and a video dimension analyzer (Living Systems). […] All data was recorded using chart software (ADInstruments). […]

Compound | blood flow increase stimulated by applying electronic pulses on saphenous nerve [1] | time after dosing by which the effect has completely disappeared ([2]; 300 μg/kg BIBN4096BS (FIG. 9)) | block of MMA dilation evoked by electrical field stimulation ([2]; acute, 10 mg/kg mu7E9, 300 μg/kg BIBN4096BS (FIG. 9))
CGRP 8-37: Positive control compound CGRP 8-37 (vasodilatation antagonist) (VTHRLAGLLSRSGGVVKNNFVPTNVGSKAF) [reference compound] | inhibited |  | 
NCCCC[C@H](NC(=O)[C@@H](Cc1cc(Br)c(O)c(Br)c1)NC(=O)N1CCC(N2Cc3ccccc3NC2=O)CC1)C(=O)N1CCN(c2ccncc2)CC1 [BIBN4096BS] |  | ≤ 90 min | blocks
